Measured values reported in PubChem BioAssay (NCI).
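Values below derive from 48-hour exposures of cells grown in 96-well plates, with endpoints linearly interpolated between the two concentrations bracketing the appropriate inhibition level. TGI: total growth inhibition.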

Key:
Assay in all cases: NCI tumour cell line growth inhibition, 48 h
A549 NSCLC = tested on: A549 NSCLC
IGROV1 ovarian = tested on: IGROV1 ovarian
HCT-15 colon = tested on: HCT-15 colon
CAKI-1 renal = tested on: CAKI-1 renal
T-47D breast = tested on: T-47D breast
BT-549 breast = tested on: BT-549 breast
NCI-H23 lung = tested on: NCI-H23 lung
786-0 renal = tested on: 786-0 renal
HS 578T breast = tested on: HS 578T breast

SMILES: NN/C(=N\S(=O)(=O)c1ccc(S(=O)(=O)c2ccccc2)s1)Nc1ccc(Cl)cc1
- TGI (A549 NSCLC): > 100 µM
- TGI (IGROV1 ovarian): 88.7 µM
- TGI (HCT-15 colon): > 100 µM
- TGI (CAKI-1 renal): > 100 µM
- TGI (T-47D breast): 59.3 µM
- TGI (BT-549 breast): > 100 µM
- TGI (NCI-H23 lung): 80 µM
- TGI (786-0 renal): 54.2 µM

SMILES: C(#Cc1ccccc1)SC1=C(c2ccccc2)S/C(=C(\SC#Cc2ccccc2)c2ccccc2)S1
- TGI (HS 578T breast): > 100 µM
- TGI (A549 NSCLC): > 100 µM
- TGI (IGROV1 ovarian): > 100 µM
- TGI (HCT-15 colon): > 100 µM
- TGI (CAKI-1 renal): > 100 µM
- TGI (T-47D breast): > 100 µM
- TGI (BT-549 breast): > 100 µM
- TGI (NCI-H23 lung): > 100 µM
- TGI (786-0 renal): > 100 µM

SMILES: O=C(Cc1ccccc1)NN1C(=O)/C(=C\c2ccccc2O)SC1=Nc1ccccc1
- TGI (HS 578T breast): > 100 µM
- TGI (A549 NSCLC): > 100 µM
- TGI (IGROV1 ovarian): > 100 µM
- TGI (HCT-15 colon): > 100 µM
- TGI (T-47D breast): > 100 µM
- TGI (BT-549 breast): > 100 µM
- TGI (NCI-H23 lung): > 100 µM
- TGI (786-0 renal): > 100 µM

SMILES: O=[N+]([O-])/C(C(Cl)=C(Cl)Cl)=C(/Nc1ccccc1)Sc1ccccc1
- TGI (HS 578T breast): > 100 µM
- TGI (A549 NSCLC): 50.2 µM
- TGI (IGROV1 ovarian): 48.1 µM
- TGI (HCT-15 colon): 41.6 µM
- TGI (CAKI-1 renal): 29.5 µM
- TGI (T-47D breast): 59.8 µM
- TGI (BT-549 breast): 66.9 µM
- TGI (NCI-H23 lung): 36.2 µM
- TGI (786-0 renal): 46.5 µM

SMILES: C=CCNC(=S)/N=C/C(C(=O)Nc1ccccc1C)=C(\C)O
- TGI (HS 578T breast): > 100 µM
- TGI (A549 NSCLC): > 100 µM
- TGI (IGROV1 ovarian): > 100 µM
- TGI (HCT-15 colon): > 100 µM
- TGI (CAKI-1 renal): > 100 µM
- TGI (T-47D breast): > 100 µM
- TGI (BT-549 breast): > 100 µM
- TGI (NCI-H23 lung): > 100 µM
- TGI (786-0 renal): > 100 µM

SMILES: O=C(Nc1ccc2ccccc2c1)c1cc2cc(CCl)ccc2oc1=O
- TGI (HS 578T breast): 8.73 µM
- TGI (A549 NSCLC): > 100 µM
- TGI (IGROV1 ovarian): > 100 µM
- TGI (HCT-15 colon): > 100 µM
- TGI (CAKI-1 renal): > 100 µM
- TGI (T-47D breast): > 100 µM
- TGI (BT-549 breast): > 100 µM
- TGI (NCI-H23 lung): > 100 µM
- TGI (786-0 renal): > 100 µM

SMILES: COc1ccc(CNc2nc3ccccc3nc2C(=O)O)cc1
- TGI (HS 578T breast): > 100 µM
- TGI (A549 NSCLC): > 100 µM
- TGI (IGROV1 ovarian): > 100 µM
- TGI (HCT-15 colon): 60.9 µM
- TGI (CAKI-1 renal): > 100 µM
- TGI (T-47D breast): > 100 µM
- TGI (BT-549 breast): > 100 µM
- TGI (NCI-H23 lung): > 100 µM
- TGI (786-0 renal): > 100 µM

SMILES: CSCCCNC(=O)[C@H](CSC)NC(=O)c1csc(CCNC(=O)[C@@H](NSc2ccccc2[N+](=O)[O-])C(C)O)n1 (stereo partly drawn)
- TGI (HS 578T breast): > 100 µM
- TGI (A549 NSCLC): > 100 µM
- TGI (IGROV1 ovarian): > 100 µM
- TGI (HCT-15 colon): > 100 µM
- TGI (CAKI-1 renal): > 100 µM
- TGI (BT-549 breast): > 100 µM
- TGI (NCI-H23 lung): > 100 µM
- TGI (786-0 renal): > 100 µM

SMILES: CCn1c2ccccc2c2cc(Nc3cc(C)[nH]c(=O)n3)ccc21
- TGI (A549 NSCLC): > 100 µM
- TGI (HCT-15 colon): > 100 µM
- TGI (CAKI-1 renal): > 100 µM
- TGI (T-47D breast): > 100 µM
- TGI (NCI-H23 lung): > 100 µM
- TGI (786-0 renal): > 100 µM

SMILES: COC1CC(OC2C(C)OC(OC3C(C)OC(OC4C(C)OC(O[C@H]5CC[C@@]6(C)C(=CC[C@]7(O)[C@@H]6C[C@@H](O)[C@@]6(C)[C@]7(O)CC[C@@]6(O)C(C)=O)C5)CC4OC)CC3OC)CC2OC)OC(C)C1O (stereo partly drawn)
- TGI (HS 578T breast): > 12.5 µM
- TGI (A549 NSCLC): > 12.5 µM
- TGI (IGROV1 ovarian): > 12.5 µM
- TGI (HCT-15 colon): > 12.5 µM
- TGI (CAKI-1 renal): > 12.5 µM
- TGI (T-47D breast): > 12.5 µM
- TGI (BT-549 breast): > 12.5 µM
- TGI (NCI-H23 lung): > 12.5 µM
- TGI (786-0 renal): > 12.5 µM

SMILES: Cc1ccc(NC(=O)CC(=O)n2nc(C)c(N=Nc3cccc(C)c3)c2C)cc1
- TGI (HS 578T breast): > 100 µM
- TGI (A549 NSCLC): > 100 µM
- TGI (IGROV1 ovarian): > 100 µM
- TGI (HCT-15 colon): > 100 µM
- TGI (CAKI-1 renal): > 100 µM
- TGI (T-47D breast): > 100 µM
- TGI (BT-549 breast): > 100 µM
- TGI (NCI-H23 lung): > 100 µM
- TGI (786-0 renal): > 100 µM

SMILES: C[C@H](CCC(=O)NCC(=O)O)[C@H]1CC[C@H]2[C@@H]3[C@H](O)C[C@@H]4C[C@H](O)CC[C@]4(C)[C@H]3CC[C@]12C
- TGI (HS 578T breast): > 100 µM
- TGI (A549 NSCLC): > 100 µM
- TGI (IGROV1 ovarian): > 100 µM
- TGI (HCT-15 colon): > 100 µM
- TGI (CAKI-1 renal): > 100 µM
- TGI (T-47D breast): > 100 µM
- TGI (BT-549 breast): > 100 µM
- TGI (NCI-H23 lung): > 100 µM
- TGI (786-0 renal): > 100 µM

SMILES: CCCCC[C@H]1CCCCCCCCCC(=O)OC2C(O[C@@H]3OC(C)[C@H](OC(=O)[C@@H](C)CC)C(O[C@@H]4OC(C)[C@H](O)C(O)[C@@H]4O)[C@@H]3OC(=O)[C@H](C)CC)[C@H](OC3C(O)[C@@H](O)C(C)O[C@H]3O1)OC(CO)[C@H]2O (stereo partly drawn)
- TGI (HS 578T breast): 35.8 µM
- TGI (A549 NSCLC): 31.2 µM
- TGI (IGROV1 ovarian): 31.8 µM
- TGI (HCT-15 colon): 30.6 µM
- TGI (CAKI-1 renal): 31.7 µM
- TGI (T-47D breast): 33.3 µM
- TGI (NCI-H23 lung): 34 µM
- TGI (786-0 renal): 31.7 µM

SMILES: Cc1ccc2c(c1C)C(=O)/C(=C/c1cccc(C)c1C(=O)O)C2
- TGI (HS 578T breast): > 100 µM
- TGI (A549 NSCLC): > 100 µM
- TGI (IGROV1 ovarian): > 100 µM
- TGI (HCT-15 colon): > 100 µM
- TGI (CAKI-1 renal): > 100 µM
- TGI (T-47D breast): > 100 µM
- TGI (BT-549 breast): > 100 µM
- TGI (NCI-H23 lung): > 100 µM
- TGI (786-0 renal): > 100 µM

SMILES: CC(=O)c1sc2[n+](c1C)C(=O)/C(=C\c1ccccc1Cl)S2
- TGI (HS 578T breast): > 100 µM
- TGI (A549 NSCLC): 43.6 µM
- TGI (IGROV1 ovarian): 33.8 µM
- TGI (HCT-15 colon): 27.1 µM
- TGI (CAKI-1 renal): 41 µM
- TGI (T-47D breast): 36.2 µM
- TGI (NCI-H23 lung): 38.5 µM
- TGI (786-0 renal): 38.2 µM

SMILES: COC(=O)C(NC(=O)OC(C)(C)C)P(=O)(OC)OC (stereo not drawn)
- TGI (HS 578T breast): > 100 µM
- TGI (A549 NSCLC): > 100 µM
- TGI (IGROV1 ovarian): > 100 µM
- TGI (HCT-15 colon): > 100 µM
- TGI (CAKI-1 renal): > 100 µM
- TGI (T-47D breast): > 100 µM
- TGI (BT-549 breast): > 100 µM
- TGI (NCI-H23 lung): > 100 µM
- TGI (786-0 renal): > 100 µM

SMILES: CN(C)CCCNC(=O)c1cn2c(ccc3sc4ccccc4c(=O)c32)n1
- TGI (HS 578T breast): 36.1 µM
- TGI (A549 NSCLC): 28.3 µM
- TGI (IGROV1 ovarian): 27.4 µM
- TGI (HCT-15 colon): 10.7 µM
- TGI (CAKI-1 renal): 14.8 µM
- TGI (T-47D breast): 45.3 µM
- TGI (BT-549 breast): 37.8 µM
- TGI (NCI-H23 lung): 28.4 µM
- TGI (786-0 renal): 8.08 µM

SMILES: Cc1cc(=O)oc2c(CNC(CC(C)C)C(=O)O)c(O)ccc12 (stereo not drawn)
- TGI (HS 578T breast): > 100 µM
- TGI (A549 NSCLC): > 100 µM
- TGI (IGROV1 ovarian): > 100 µM
- TGI (HCT-15 colon): > 100 µM
- TGI (CAKI-1 renal): > 100 µM
- TGI (T-47D breast): > 100 µM
- TGI (NCI-H23 lung): > 100 µM
- TGI (786-0 renal): > 100 µM

SMILES: COc1cc2c3c(cc(Cl)nc3c1OC)C(O)(CC(=O)c1ccccc1)C(=O)N2 (stereo not drawn)
- TGI (HS 578T breast): 73.4 µM
- TGI (A549 NSCLC): 33.1 µM
- TGI (IGROV1 ovarian): 27.4 µM
- TGI (HCT-15 colon): 50.9 µM
- TGI (CAKI-1 renal): 31.6 µM
- TGI (T-47D breast): > 100 µM
- TGI (BT-549 breast): 30.4 µM
- TGI (NCI-H23 lung): 36.9 µM
- TGI (786-0 renal): 22 µM

SMILES: CC(C)=NOC(=O)Nc1cccc2c1OCO2
- TGI (HS 578T breast): > 100 µM
- TGI (A549 NSCLC): > 100 µM
- TGI (IGROV1 ovarian): > 100 µM
- TGI (HCT-15 colon): > 100 µM
- TGI (CAKI-1 renal): > 100 µM
- TGI (T-47D breast): > 100 µM
- TGI (NCI-H23 lung): > 100 µM
- TGI (786-0 renal): > 100 µM

SMILES: COc1cc(/C=N/NC2=NCCN2)ccc1O
- TGI (HS 578T breast): > 100 µM
- TGI (A549 NSCLC): > 100 µM
- TGI (IGROV1 ovarian): > 100 µM
- TGI (HCT-15 colon): > 100 µM
- TGI (T-47D breast): > 100 µM
- TGI (BT-549 breast): > 100 µM
- TGI (NCI-H23 lung): > 100 µM
- TGI (786-0 renal): > 100 µM
